Consider 40 molecules from ChEMBL document CHEMBL5052856, “Inhibitors of apol1 and methods of using same” (2021).

The target of one test is Apolipoprotein L1 (Homo sapiens, UniProt O14791). Briefly: Inhibition of APOL1 G1 variant in human HEK293-T-REx cells measured by Thallium assay. Type of test: cell-based.
For test [1], the system named is Trypanosoma brucei brucei. The test is described as follows: Antitrypanosomal activity against Trypanosoma brucei brucei assessed as trypanosome lysis using recombinant APOL1 protein G1 variant and measured by Alamar blue based fluoresence assay. Type of test: functional, organism-based.

pIC50: −log10 of the molar value.

With `O=C(O)CNC(=O)[C@H]1C[C@H](c2c(-c3ccc(F)cc3)[nH]c3c(F)cc(F)cc32)C1`, the negative-log IC50 (pIC50) (against Apolipoprotein L1; in test [1]) was less than 6.00 in each case.

With `COCc1cc(CNC(=O)[C@H]2C[C@H](c3c(-c4ccc(F)cc4)[nH]c4c(F)cc(F)cc43)C2)n[nH]1`, the negative logarithm of the IC50 (pIC50) (against Apolipoprotein L1; in test [1]) was less than 6.00 in each case.

Turning to `CC(C)(NC(=O)[C@H]1C[C@H](c2c(-c3ccc(F)cc3)[nH]c3c(F)cc(F)cc32)C1)C(N)=O`, the negative-log IC50 (pIC50) at Apolipoprotein L1 was 9.60; in test [1], more than 6.60.

As to `CC1CC(NC(=O)[C@H]2C[C@H](c3c(-c4ccc(F)cc4)[nH]c4c(F)cc(F)cc43)C2)C(=O)O1` (stereo not given in full), the pIC50 (against Apolipoprotein L1; in test [1]) was less than 6.00 each time.

Take `O=C([C@H]1C[C@H](c2c(-c3ccc(F)cc3)[nH]c3c(F)cc(F)cc32)C1)N1CCCCC1CO` (stereo not given in full): the figures for the pIC50 (on Apolipoprotein L1; in test [1]) were less than 6.00 and 6.60, respectively.

In the case of `C[C@@H](O)[C@H](CO)NC(=O)[C@H]1C[C@H](c2c(-c3ccc(F)cc3)[nH]c3c(F)cc(F)cc32)C1`, the pIC50 is less than 6.00 on Apolipoprotein L1 and 6.60 in test [1].

As for `CC(O)CN(CCO)C(=O)[C@H]1C[C@H](c2c(-c3ccc(F)cc3)[nH]c3c(F)cc(F)cc32)C1` (stereo not given in full), the negative-log IC50 (pIC50) is 9.60 against Apolipoprotein L1 and more than 6.60 in test [1].

For the molecule `O=C([C@H]1C[C@H](c2c(-c3ccc(F)cc3)[nH]c3c(F)cc(F)cc32)C1)N1CCN[C@H](CO)C1`, the pIC50 against Apolipoprotein L1 was less than 6.00; in test [1] it was 6.60.

On to `CC(O)(CO)CNC(=O)[C@H]1C[C@H](c2c(-c3ccc(F)cc3)[nH]c3c(F)cc(F)cc32)C1` (stereo not given in full), for which the pIC50 (against Apolipoprotein L1; in test [1]) was less than 6.00 in each case.

On to `CC1(CO)CCN1C(=O)[C@H]1C[C@H](c2c(-c3ccc(F)cc3)[nH]c3c(F)cc(F)cc32)C1` (stereo not given in full), for which the pIC50 was 9.60 against Apolipoprotein L1 and more than 6.60 in test [1].

In the case of `O=C([C@H]1C[C@H](c2c(-c3ccc(F)cc3)[nH]c3c(F)cc(F)cc32)C1)N1CCC(CO)(CO)CC1`, the pIC50 (against Apolipoprotein L1; in test [1]) was less than 6.00 throughout.

Take `CC(NC(=O)[C@H]1C[C@H](c2c(-c3ccc(F)cc3)[nH]c3c(F)cc(F)cc32)C1)c1ccnn1C` (stereo not given in full): the negative-log IC50 (pIC50) (at Apolipoprotein L1; in test [1]) was less than 6.00 throughout.

With `O=C(NCC1(O)CCC1)[C@H]1C[C@H](c2c(-c3ccc(F)cc3)[nH]c3c(F)cc(F)cc32)C1`, the negative-log IC50 (pIC50) (against Apolipoprotein L1; in test [1]) was less than 6.00 each time.

In the case of `O=C1NCCC1CNC(=O)[C@H]1C[C@H](c2c(-c3ccc(F)cc3)[nH]c3c(F)cc(F)cc32)C1` (stereo not given in full), the pIC50 (on Apolipoprotein L1; in test [1]) was less than 6.00 in each case.

As for `CC(O)CNC(=O)[C@H]1C[C@H](c2c(-c3ccc(F)cc3)[nH]c3c(F)cc(F)cc32)C1` (stereo not given in full), the pIC50 against Apolipoprotein L1 is 9.60; in test [1], 6.60.

For the molecule `O=C(NCCOCCO)[C@H]1C[C@H](c2c(-c3ccc(F)cc3)[nH]c3c(F)cc(F)cc32)C1`, the pIC50 (on Apolipoprotein L1; in test [1]) was more than 6.60 each time.

For `O=C(N[C@@H]1CCOC1)[C@H]1C[C@H](c2c(-c3ccc(F)cc3)[nH]c3c(F)cc(F)cc32)C1`, the pIC50 is 9.60 against Apolipoprotein L1 and 6.60 in test [1].

On to `O=C([C@H]1C[C@H](c2c(-c3ccc(F)cc3)[nH]c3c(F)cc(F)cc32)C1)N1CCCC[C@@H]1CCO`, for which the negative-log IC50 (pIC50) (on Apolipoprotein L1; in test [1]) was less than 6.00 each time.

Regarding `O=C(N[C@H]1CC[C@@H](CO)O1)[C@H]1C[C@H](c2c(-c3ccc(F)cc3)[nH]c3c(F)cc(F)cc32)C1`, the negative logarithm of the IC50 (pIC50) (at Apolipoprotein L1; in test [1]) was less than 6.00 throughout.

In the case of `O=C(N[C@@H]1CCC[C@H]1O)[C@H]1C[C@H](c2c(-c3ccc(F)cc3)[nH]c3c(F)cc(F)cc32)C1`, the pIC50 (on Apolipoprotein L1; in test [1]) was less than 6.00 in each case.

As to `NC(=O)CNC[C@H]1C[C@@H](c2c(-c3ccc(F)cc3)[nH]c3c(F)cc(F)cc32)C1`, the negative logarithm of the IC50 (pIC50) (against Apolipoprotein L1; in test [1]) was more than 6.60 in each case.

`O=C(NCCCO)[C@H]1C[C@H](c2c(-c3ccc(F)cc3)[nH]c3c(F)cc(F)cc32)C1`: the pIC50 at Apolipoprotein L1 was 9.60; in test [1], more than 6.60.

As for `O=C([C@H]1C[C@H](c2c(-c3ccc(F)cc3)[nH]c3c(F)cc(F)cc32)C1)N1CC(CO)C1`, the negative logarithm of the IC50 (pIC50) against Apolipoprotein L1 is less than 6.00; in test [1] it was more than 6.60.

In the case of `O=C(NCC1(O)CC1)[C@H]1C[C@H](c2c(-c3ccc(F)cc3)[nH]c3c(F)cc(F)cc32)C1`, the values for the negative logarithm of the IC50 (pIC50) (on Apolipoprotein L1; in test [1]) were 9.60 and 6.60, respectively.

For the molecule `O=C([C@H]1C[C@H](c2c(-c3ccc(F)cc3)[nH]c3c(F)cc(F)cc32)C1)N(CCO)c1cnccn1`, the negative logarithm of the IC50 (pIC50) (against Apolipoprotein L1; in test [1]) was less than 6.00 throughout.

In the case of `NC(=O)[C@@H]1CCCN1C(=O)[C@H]1C[C@H](c2c(-c3ccc(F)cc3)[nH]c3c(F)cc(F)cc32)C1`, the negative logarithm of the IC50 (pIC50) (against Apolipoprotein L1; in test [1]) was less than 6.00 in each case.

Turning to `O=C(NC(CO)CO)[C@H]1C[C@H](c2c(-c3ccc(F)cc3)[nH]c3c(F)cc(F)cc32)C1`, the pIC50 (against Apolipoprotein L1; in test [1]) was more than 6.60 throughout.

In the case of `CC1(O)CC(C(=O)N2CCN(C(=O)[C@H]3C[C@H](c4c(-c5ccc(F)cc5)[nH]c5c(F)cc(F)cc54)C3)CC2(C)C)C1` (stereo not given in full), the negative logarithm of the IC50 (pIC50) (on Apolipoprotein L1; in test [1]) was less than 6.00 in each case.

For `C[C@H](CO)N(C)C(=O)[C@H]1C[C@H](c2c(-c3ccc(F)cc3)[nH]c3c(F)cc(F)cc32)C1` (mixture of isomers), the negative-log IC50 (pIC50) was 9.60 against Apolipoprotein L1 and more than 6.60 in test [1].

For `O=C1OCC[C@@H]1NC(=O)[C@H]1C[C@H](c2c(-c3ccc(F)cc3)[nH]c3c(F)cc(F)cc32)C1`, the pIC50 on Apolipoprotein L1 is 9.60; in test [1], 6.60.

For `O=C(NC1CC(O)C1)[C@H]1C[C@H](c2c(-c3ccc(F)cc3)[nH]c3c(F)cc(F)cc32)C1` (stereo not given in full), the pIC50 is 9.60 at Apolipoprotein L1 and 6.60 in test [1].

Turning to `O=C1CC[C@@H](NC(=O)[C@H]2C[C@H](c3c(-c4ccc(F)cc4)[nH]c4c(F)cc(F)cc43)C2)C1`, the negative logarithm of the IC50 (pIC50) (against Apolipoprotein L1; in test [1]) was less than 6.00 each time.

Take `O=C(N[C@H]1CC[C@H](O)C1)[C@H]1C[C@H](c2c(-c3ccc(F)cc3)[nH]c3c(F)cc(F)cc32)C1`: the negative-log IC50 (pIC50) (at Apolipoprotein L1; in test [1]) was less than 6.00 in each case.

As for `CNC(=O)C(C)NC(=O)[C@H]1C[C@H](c2c(-c3ccc(F)cc3)[nH]c3c(F)cc(F)cc32)C1` (stereo not given in full), the pIC50 is 9.60 against Apolipoprotein L1 and 6.60 in test [1].

For the molecule `O=C([C@H]1C[C@H](c2c(-c3ccc(F)cc3)[nH]c3c(F)cc(F)cc32)C1)N1CCC(CCO)CC1`, the pIC50 (on Apolipoprotein L1; in test [1]) was less than 6.00 each time.

Take `CC(=O)C1CCCCN1C(=O)[C@H]1C[C@H](c2c(-c3ccc(F)cc3)[nH]c3c(F)cc(F)cc32)C1` (stereo not given in full): the negative logarithm of the IC50 (pIC50) against Apolipoprotein L1 was less than 6.00; in test [1] it was 6.60.

With `O=C([C@H]1C[C@H](c2c(-c3ccc(F)cc3)[nH]c3c(F)cc(F)cc32)C1)N1CCC[C@@H]1CO`, the figures for the pIC50 (on Apolipoprotein L1; in test [1]) were 9.60 and more than 6.60, respectively.

Regarding `CC(C)(O)C1CN(C(=O)[C@H]2C[C@H](c3c(-c4ccc(F)cc4)[nH]c4c(F)cc(F)cc43)C2)C1`, the negative-log IC50 (pIC50) (on Apolipoprotein L1; in test [1]) was less than 6.00 each time.

With `CCC(CO)NC(=O)[C@H]1C[C@H](c2c(-c3ccc(F)cc3)[nH]c3c(F)cc(F)cc32)C1` (stereo not given in full), the negative logarithm of the IC50 (pIC50) on Apolipoprotein L1 is more than 6.60; in test [1], 6.60.

With `O=C1C[C@H](NC(=O)[C@H]2C[C@H](c3c(-c4ccc(F)cc4)[nH]c4c(F)cc(F)cc43)C2)C(=O)N1`, the pIC50 (against Apolipoprotein L1; in test [1]) was more than 6.60 in each case.
